In series [1] the test system is A375 human melanoma cancer cell derived xenografts, intracranial. Put plainly: Example 12 efficacy study, intracranial A375-luciferase CNS model: survival. The series is classed as in vivo, BALB/c nude mice. Conditions: 35 mg/kg PO/QD; vehicle median 18 days. The procedure:
For the efficacy study, agents were tested in A375 human melanoma cancer cell derived xenografts (CDX). This cell line was isolated from the primary melanoma of a person and is known to have a homozygous BRAF V600E mutation. The A375 tumor cells were maintained in vitro in DMEM medium supplemented with 10% fetal bovine serum and 1% Penicillin-Streptomycin at 37° C. in an atmosphere of 5% CO2 in air. The tumor cells were routinely subcultured twice weekly. The cells growing in an exponential growth phase were harvested and counted for tumor inoculation.
For this CNS study, A375 cells with a luciferase tag for tracking tumor cell signal, were injected intracranially into 6-8-week-old female BALB/c nude mice (Zhejiang Vital River Laboratory Animal Co., LTD. Beijing, China). The mice were anaesthetized, restrained, and sterilized prior to surgery. A sagittal cut was made above the anterior parietal and occipital bone with sterilized scalpel, the skull was unrevealed and cleaned with cotton bud, in this case the anterior fontanel could be available. A 2 mm hole was created to the right of the anterior fontanel and 0.5 mm ahead of the coronal on the skull with a cranial drill. Cell suspensions in 20% Matrigel were mixed and aspirated into injector carefully to avoid bubbles and wiped to avoid extracranial tumor genesis. The needle was inserted vertically into the cranial hole and the cell mixture was slowly injected for 2 minutes and held for another minute to decrease the drainage of the cell suspension. The wound was closed, and a subcutaneous injection of 5 mg/kg Meloxicam was given to relieve the pain and continued for 3 days. The mice were monitored closely until they woke up after the surgery. During the study, the care and use of animals was conducted in accordance with the regulations of the Association for Assessment and Accreditation of Laboratory Animal Care (AAALAC). After inoculation, the animals were checked daily for morbidity and mortality. At the time of routine monitoring, the animals would be checked for any effects of tumor growth and treatments on normal behavior such as mobility, food and water consumption, body weight gain/loss, eye/hair matting, and any other abnormal effect.
The administration of the test agents began three days after inoculation. CNS tumor-bearing mice were randomly assigned to groups of 8 mice and administered Compound 26 at 10 mg/kg orally (PO) twice a day (BID), Compound 141 at 10 mg/kg PO/BID, encorafenib at 35 mg/kg once a day orally, (PO/QD), or the vehicle alone PO/BID. Measurements for the presence of the A375 luciferase (CRL-1619-LUC2, ATCC, Manassas, VA, USA) cells within the CNS were done with IVIS Lumina III machine. Images were collected twice weekly to follow the growth of the models. The tumor-bearing mice were weighed and intraperitoneally administered luciferin (Perkin Elmer Inc-122799) at a dosage of 150 mg/kg. After 10 min, mice were pre-anesthetized with the mixture gas of oxygen and isoflurane. The bioluminescence value at 15 min post luciferin injection was recorded as the final value and plotted. The endpoint for individual mice was reached when the mouse body weight decreased by 20% when compared to their starting weight.

The nature of series [2]: Example 9 pharmacokinetics assay for the PK and PD study Part I, II and III (plasma, tumor, liver). The class given is in vivo, BALB/c nude mice. The conditions noted are these: mouse, po, 100 mg/kg, p.o., single dose, ± SEM. As to the method: For the PK and PD study Part I, agents were administered to BALB/c nude mice bearing A375 human melanoma xenografts tumors. Dabrafenib, Compound 218 and Compound 157 were dosed via p.o. once on day 1. Dabrafenib was dosed at 100 mg/kg. Compound 218 and Compound 157 were dosed at 10 mg/kg.
For the PK and PD study Part II, agents were administered to BALB/c nude mice bearing A375 human melanoma xenografts tumors. Compound 133, Compound 144 and Compound 198 were dosed at 10 mg/kg via p.o. once on day 1.
For the PK and PD study Part III, agent was administered to BALB/c nude mice bearing A375 human melanoma xenografts tumors. Compound 204 were dosed at 10 mg/kg via p.o. once on day 1.
The plasma samples were collected at predetermined time points for PK analysis. The mice were euthanized at predetermined time points post the treatment. The blood samples were collected into the 1.5 mL Eppendorf tubes containing 15 μL of 0.5 M EDTA-K2. And then the anticoagulant blood samples were centrifuged at 2,500 g at 4° C. for 15 minutes. The plasma samples were separated into 2 aliquots. The 1st was used for PK analysis, and the 2nd served as backup. The samples were stored at −80° C. before bioanalysis.
The tumor samples were collected at predetermined time points for PK and WB analysis. The tumor was dissected out and split into 3 parts. The 1st part was used for PK analysis, the 2nd part was used for WB analysis and the last one served as backup for study. The samples were transferred into pre-labeled tubes and quickly froze in liquid nitrogen within 2 minutes after dissection. The samples were stored at −80° C. before bioanalysis.
Liver samples were collected at predetermined time points for PK analysis. The left lobe of the liver was dissected out and split into 2 parts. The 1st part was used for PK analysis and the 2nd part served as the backup for the study. The samples were transferred into pre-labeled tubes and quickly froze in liquid nitrogen within 2 minutes after dissection. The samples were stored at −80° C. before bioanalysis.
The harvested plasma, tumor and liver samples were processed for pharmacokinetics analysis by LC-MS/MS with a concentration range of 5.00-10,000 ng/mL for Compound 218, Compound 157 and Compound 133 in plasma, 0.500-1,000 ng/ml for Compound 218 in liver and tumor homogenate, 0.200-400 ng/mL for Compound 157, Dabrafenib and Compound 133 in liver and tumor homogenate, 0.500-1000 ng/mL for Dabrafenib and Compound 204 in plasma, 0.200-200 ng/mL for Compound 204 in liver and tumor homogenate, 20.0-20,000 ng/mL for Compound 144 and Compound 198 in plasma, 1.00-1,000 ng/mL for Compound 144 and Compound 198 in liver and tumor homogenate.

[3] abbreviates: liver, read-out: Mean Concentration in Liver.
Where [4] appears, read: plasma, read-out: Mean Concentration in Plasma.
[5] abbreviates: tumor, read-out: Mean Concentration in Tumor.

Each structure is given as a SMILES string. Where two headings read alike, the source gives them in different places.

`COC(=O)N[C@@H](C)CNc1nccc(-c2cn(C(C)C)nc2-c2cc(Cl)cc(NS(C)(=O)=O)c2F)n1` [Encorafenib, encorafenib, reference compound] returned a median survival in series [1] of 46 days.
On to `CC(C)(C)c1nc(-c2cccc(NS(=O)(=O)c3c(F)cccc3F)c2F)c(-c2ccnc(N)n2)s1` [Dabrafenib, dabrafenib, reference compound], for which, in series [2] (setting [3]), the concentration at 6 h was determined as 1010 ± 111 ng/g and the concentration at 12 h stood at 277 ± 125 ng/g. In series [2] (setting [4]), the concentration at 1 h was found to be 5.92 ± 2.38 µg/mL, the concentration at 6 h came out at 0.259 ± 0.0454 µg/mL, the concentration at 12 h amounted to 0.0887 ± 0.0427 µg/mL and the concentration at 24 h was 0.00109 ± 0.000467 µg/mL. Also, in series [2] (setting [5]), the concentration at 1 h is 4920 ± 1490 ng/g, the concentration at 6 h was found to be 237 ± 4.91 ng/g, the concentration at 12 h amounted to 54 ± 13.5 ng/g and the concentration at 24 h turned out to be 1.87 ± 0.9 ng/g.

The values are drawn from US20260297060A1, “COMPOUNDS FOR THE DEGRADATION OF MUTANT BRAF” (C4 THERAPEUTICS, INC., priority 2023, published 2026).
